System: SK-N-MC cells
Assay: MTT cellular proliferation assay, SK-N-MC neuroepithelioma cells
Format: cell-based, human
Settings: Homo sapiens; SK-N-MC, 24 h, 37 °C, MTT, mean ± SD (3 experiments)
Description: The anti-proliferative activity of Dp4e4mT relative to its complexes with Fe(III), Co(III), Ni(II), Cu(II), Zn(II), Ga(III), and Pd(II) was examined over incubation periods of 24-, 48-, and 72 h/37 °C (Table 2). These studies were performed using human SK-N-MC neuroepithelioma and AsPC-1 pancreatic adenocarcinoma cells that we have previously examined to assay other ligands.[15,28,43] […]
All cell lines were procured from the American Type Culture Collection (ATCC; Manassas, VA). The SK-N-MC neuroepithelioma cell line and the mortal MRC-5 fibroblasts were cultured in minimum essential medium (Sigma-Aldrich), while the AsPC-1 cell line was cultured in Roswell Park Memorial Institute 1640 medium (Thermo Fisher Scientific, MA, USA). Both media were supplemented with 10% fetal calf serum, non-essential amino acids (1 mM), sodium pyruvate (1 mM), L-glutamine (2 mM), penicillin (100 U/mL), streptomycin (100 U/mL), and Fungizone (0.5 µg/mL). Cells were maintained at 37 °C in an incubator under a humidified atmosphere with 5% CO 2, following established protocols. 11 Cellular Proliferation Assay
Cellular proliferation was evaluated through the established 3-(4,5-dimethylthiazol-2-yl)-2,5-diphenyltetrazolium bromide (MTT) proliferation assay, validated by viable cell counts.12 […]
Ligands and complexes were dissolved in DMSO to make a stock solution of 10 mM, subsequently diluted in culture media. For cell culture experiments, the DMSO's maximum concentration remained below 0.5% (v/v), with no discernible impact on proliferation.12 MTT […]
Trypan blue staining.12 Analysis of the data was executed employing MARS Data Analysis Software (BMG LabTech; version 3.30). The concentration of agents necessary to inhibit cellular proliferation by 50% (IC 50) was then calculated. […]

IC50 | SMILES
> 25 µM | CCN(C)C(=S)NN=C(c1ccccn1)c1ccccn1 [Dp4e4mT, di-2-pyridylketone-4-ethyl-4-methyl-3-thiosemicarbazone]

Same assay, conditions: Homo sapiens; SK-N-MC, 48 h, 37 °C, MTT, mean ± SD (3 experiments)

IC50 | SMILES
0.043 ± 0.006 µM | CCN(C)C(=S)NN=C(c1ccccn1)c1ccccn1 [Dp4e4mT, di-2-pyridylketone-4-ethyl-4-methyl-3-thiosemicarbazone]

Same assay, conditions: Homo sapiens; SK-N-MC, 72 h, 37 °C, MTT, mean ± SD (3 experiments)

IC50 | SMILES
0.006 ± 0.001 µM | CCN(C)C(=S)NN=C(c1ccccn1)c1ccccn1 [Dp4e4mT, di-2-pyridylketone-4-ethyl-4-methyl-3-thiosemicarbazone]

Same assay, conditions: IC50 of MRC-5 cells/IC50 of SK-N-MC cells, 72 h/37 °C

SMILES | Therapeutic index SK-N-MC
CCN(C)C([S-])=NN=C(c1ccccn1)c1ccccn1.CCN(C)C([S-])=NN=C(c1ccccn1)c1ccccn1.[Ga+3] [[Ga(Dp4e4mT)2]^+] | 192
CCN(C)C([S-])=NN=C(c1ccccn1)c1ccccn1.CCN(C)C([S-])=NN=C(c1ccccn1)c1ccccn1.[Co+3] [[Co(Dp4e4mT)2]^+] | 4
CCN(C)C(=S)NN=C(c1ccccn1)c1ccccn1 [Dp4e4mT, di-2-pyridylketone-4-ethyl-4-methyl-3-thiosemicarbazone] | 301

Same assay, conditions: SK-N-MC, 24 h, 37 °C, MTT, mean ± SD (3 experiments)

IC50 | SMILES
16.22 ± 0.007 µM | CCN(C)C([S-])=NN=C(c1ccccn1)c1ccccn1.CCN(C)C([S-])=NN=C(c1ccccn1)c1ccccn1.[Ga+3] [[Ga(Dp4e4mT)2]^+]
5.498 ± 0.004 µM | CCN(C)C([S-])=NN=C(c1ccccn1)c1ccccn1.CCN(C)C([S-])=NN=C(c1ccccn1)c1ccccn1.[Co+3] [[Co(Dp4e4mT)2]^+]

Same assay, conditions: SK-N-MC, 24 h, 37 °C, MTT, mean ± SD (3 experiments); listed as Dp4e4mT Ga(III) complex

IC50 | SMILES
16.2 to 19.4 µM | CCN(C)C([S-])=NN=C(c1ccccn1)c1ccccn1.CCN(C)C([S-])=NN=C(c1ccccn1)c1ccccn1.[Ga+3] [[Ga(Dp4e4mT)2]^+]

Same assay, conditions: SK-N-MC, 48 h, 37 °C, MTT, mean ± SD (3 experiments)

IC50 | SMILES
0.043 ± 0.006 µM | CCN(C)C([S-])=NN=C(c1ccccn1)c1ccccn1.CCN(C)C([S-])=NN=C(c1ccccn1)c1ccccn1.[Ga+3] [[Ga(Dp4e4mT)2]^+]
1.47 ± 0.061 µM | CCN(C)C([S-])=NN=C(c1ccccn1)c1ccccn1.CCN(C)C([S-])=NN=C(c1ccccn1)c1ccccn1.[Co+3] [[Co(Dp4e4mT)2]^+]

Same assay, conditions: SK-N-MC, 72 h, 37 °C, MTT, mean ± SD (3 experiments)

IC50 | SMILES
0.004 ± 0.001 µM | CCN(C)C([S-])=NN=C(c1ccccn1)c1ccccn1.CCN(C)C([S-])=NN=C(c1ccccn1)c1ccccn1.[Ga+3] [[Ga(Dp4e4mT)2]^+]
0.818 ± 0.051 µM | CCN(C)C([S-])=NN=C(c1ccccn1)c1ccccn1.CCN(C)C([S-])=NN=C(c1ccccn1)c1ccccn1.[Co+3] [[Co(Dp4e4mT)2]^+]

System: H2DCF
Assay: Redox activity: H2DCF oxidation to DCF (cell-free, L-cysteine/H2O2)
Format: biochemical
Settings: 10 μM complex + CuCl2, pH 7.4 and pH 5
Description: Redox activity in cells was examined using an established in vitro method examining 2′,7′-dichlorodihydrofluorescein (H2DCF) oxidation to fluorescent 2′,7′-dichlorofluorescein (DCF) at cytosolic pH (pH 7.4 using HBSS buffer) relative to lysosomal pH (pH 5; acetate buffer; Fig. 5).[25,26,28,42,46] To these buffers containing the complexes, L-cysteine (100 μM) was added as a reducing agent, followed by H2DCF (5 μM). Then, hydrogen peroxide (H2O2; 100 μM) was added to initiate hydroxyl radical generation. Both [Cu(DpC)Cl2] and [Cu(DpC)2] were used as positive controls due to their documented redox activity.[28,42] In contrast, the ligand, DpC, was implemented as a negative control, as it is redox inert.[28,42] As an additional control, the established Cu chelator, tetrathiomolybdate (TM), was utilized to remove Cu from the thiosemicarbazone complexes to indicate its role in their redox activity.[27,28,42] Additionally, UV-vis spectroscopy (300–700 nm) of the same solution for each complex was also performed to understand both the oxidation of H2DCF and the formation of fluorescent DCF upon excitation at 503 nm (Fig. S20A–F and S21A–F ^†). […]
ROS Generation Analysis with H 2DCF-DA
The generation of reactive oxygen species (ROS) was assessed by examining the oxidation of H2DCF.2, 8, 13, 14 Solutions containing CuCl2, TM, DpC, Dp4e4mT, [Fe(DpC)2]+, [Cu(DpC)Cl2], [Cu(DpC)2] and the Dp4e4mT complexes were prepared at a concentration of 10 µM in either HBSS (pH 7.4) or 150 mM acetate buffer (pH 5) to simulate the conditions of the cytosol and lysosome, respectively.2, 8, 14, 15 The H2DCF was prepared by deacetylation of DCFH-DA (Sigma-Aldrich) through alkaline hydrolysis using NaOH. 16
In these prepared solutions, L-cysteine (100 µM) was added as a reducing agent and then H2DCF (5 µM) added. The initiation of hydroxyl radical generation was achieved by the addition of hydrogen peroxide (H2O2; 100 µM). As a comparative benchmark, HBSS or acetate buffer containing L-cysteine, H2DCF, and H2O2, but lacking ligands or metal complexes, was employed as a control. Fluorescence measurements were carried out using a CLARIOstar Plus microplate reader (BMG LABTECH, Australia) with an excitation wavelength of 485 nm and an emission wavelength of 530 nm. 8, 14

SMILES | DCF fluorescence (H2DCF oxidation) after addition of CuCl2
CCN(C)C([S-])=NN=C(c1ccccn1)c1ccccn1.CCN(C)C([S-])=NN=C(c1ccccn1)c1ccccn1.[Ga+3] [[Ga(Dp4e4mT)2]^+] | markedly and significantly (p < 0.0001–0.001) increased DCF fluorescence
CCN(C)C([S-])=NN=C(c1ccccn1)c1ccccn1.CCN(C)C([S-])=NN=C(c1ccccn1)c1ccccn1.[Co+3] [[Co(Dp4e4mT)2]^+] | not significantly (p > 0.05) different to CuCl2 alone

Same assay, conditions: 10 μM, pH 7.4 and pH 5, no added CuCl2

SMILES | DCF fluorescence (H2DCF oxidation) of agent alone
CCN(C)C(=S)NN=C(c1ccccn1)c1ccccn1 [Dp4e4mT, di-2-pyridylketone-4-ethyl-4-methyl-3-thiosemicarbazone] | did not significantly (p > 0.05) increase DCF fluorescence

System: not listed separately
Assay: Transmetallation kinetics with Cu(OAc)2 in aqueous solution pH 7.4 / pH 5 (UV-vis)
Format: physicochemical
Settings: 10-fold excess of Cu(OAc)2, water pH 5, 25 °C
Description: Transmetallation studies were also conducted using UV-vis spectroscopy in aqueous solutions at pH 7.4 (phosphate buffer; 100 mM) and pH 5 (acetate buffer; 150 mM) to simulate physiological conditions, as thiosemicarbazones of this class transverse the cytosol (pH 7.4) to target lysosomes (pH 5), where transmetallation occurs.[25,26,28] Studies in aqueous solution were important to compare the results performed in DMSO above so as to interpret the biological studies and particularly the redox assays below where the same pH values were employed.
Transmetallation of the complexes of Dp4e4mT with Cu(OAc)2 in water was possible as it is soluble in aqueous solution at pH 7.4 and 5, while FeCl3 precipitates under these conditions and cannot be assessed. […] The UV-vis spectra of all complexes in water (ca. 10 μM solutions) are compared in Fig. S17 ^† and mirror the spectra in DMSO (see Experimental section). The spectra of [Fe(Dp4e4mT)2]^+, [Co(Dp4e4mT)2]^+, and [Pd(Dp4e4mT)Cl] are similar, and display an asymmetric maximum around 393 nm with a prominent shoulder (∼450 nm). The [Ni(Dp4e4mT)2] spectrum is similarly asymmetric, although the peak intensities are reversed relative to the Fe(III), Co(III), and Pd(II) spectra (Fig. S17 ^†). […] The spectrum of [Zn(Dp4e4mT)2] is unique in this group, with a symmetrical peak at ∼400 nm.
Table S2. Observed pseudo first order rate constants (k obs, s−1) for reactions of each Dp4e4mT complex with a 10-fold excess of Cu(OAc) 2 or FeCl 3 in DMSO or water (pH 7.4 or 5.0) at 25 °C. […]
[Co(Dp4e4mT)2]+ No reaction No reaction No reaction No reaction […]
a Reaction could not be deciphered by UV-Vis spectroscopy; bchlorido ligand hydrolysis

SMILES | Observed pseudo first order rate constant kobs, Cu(OAc)2 in water pH 5 (only or first step)
CCN(C)C([S-])=NN=C(c1ccccn1)c1ccccn1.CCN(C)C([S-])=NN=C(c1ccccn1)c1ccccn1.[Ga+3] [[Ga(Dp4e4mT)2]^+] | > 0.1 s−1
CCN(C)C([S-])=NN=C(c1ccccn1)c1ccccn1.CCN(C)C([S-])=NN=C(c1ccccn1)c1ccccn1.[Co+3] [[Co(Dp4e4mT)2]^+] | No reaction

Same assay, conditions: 10-fold excess of Cu(OAc)2, water pH 7.4, 25 °C

SMILES | Observed pseudo first order rate constant kobs, Cu(OAc)2 in water pH 7.4
CCN(C)C([S-])=NN=C(c1ccccn1)c1ccccn1.CCN(C)C([S-])=NN=C(c1ccccn1)c1ccccn1.[Ga+3] [[Ga(Dp4e4mT)2]^+] | > 0.1 s−1
CCN(C)C([S-])=NN=C(c1ccccn1)c1ccccn1.CCN(C)C([S-])=NN=C(c1ccccn1)c1ccccn1.[Co+3] [[Co(Dp4e4mT)2]^+] | No reaction

Same assay, conditions: aqueous pH 7.4, no Cu(OAc)2

SMILES | t½, spectral change without added Cu(OAc)2
CCN(C)C([S-])=NN=C(c1ccccn1)c1ccccn1.CCN(C)C([S-])=NN=C(c1ccccn1)c1ccccn1.[Ga+3] [[Ga(Dp4e4mT)2]^+] | ~30 s

Same assay, conditions: aqueous pH 7.4, no Cu(OAc)2, λmax shift ∼415 nm to 400 nm

SMILES | kobs, spectral change without added Cu(OAc)2
CCN(C)C([S-])=NN=C(c1ccccn1)c1ccccn1.CCN(C)C([S-])=NN=C(c1ccccn1)c1ccccn1.[Ga+3] [[Ga(Dp4e4mT)2]^+] | 0.022 s⁻¹

System: human tumor xenografts
Assay: not given
Settings: in vivo after oral administration; cited from earlier work

SMILES | efficacy against a lung tumor xenograft
CCN(C)C(=S)NN=C(c1ccccn1)c1ccccn1 [Dp4e4mT, di-2-pyridylketone-4-ethyl-4-methyl-3-thiosemicarbazone] | potent efficacy against a lung tumor xenograft

System: not given
Assay: not given
Settings: mice; cited from earlier work

SMILES | cardiac fibrosis
CCN(C)C(=S)NN=C(c1ccccn1)c1ccccn1 [Dp4e4mT, di-2-pyridylketone-4-ethyl-4-methyl-3-thiosemicarbazone] | did not induce cardiac fibrosis in mice

From PMC10793205, “Differential transmetallation of complexes of the anti-cancer thiosemicarbazone, Dp4e4mT: effects on anti-proliferative efficacy, redox activity, oxy-myoglobin and oxy-hemoglobin oxidation” (Chemical Science, 2023)
